Reference: patent publication US10105384B2, “Nucleic acids targeting TCTP for use in the treatment of chemo- or hormone-resistant cancers” (INSTITUT NATIONAL DE LA SANTE ET DE LA RECHERCHE MEDICALE …, priority 2010, dated 2018)

System: PC-3 cells
Experiment: Flow cytometry of propidium iodide-stained nuclei (apoptosis, cell cycle), PC-3 cells
Format: cell-based, human
Conditions: PC-3, docetaxel treatment
Experimental: Flow cytometry of propidium iodide-stained nuclei was performed as described previously (Rocchi et al., 2004, Cancer Res. 64:6595-602). In brief, PC-3 cells were plated at the density of 10^6 cells into 10 cm dishes in DMEM supplemented with 10% FCS. To assess the effect of TCTP inhibition on apoptosis and cell cycle, cells were treated the day after seeding with 5 nM of siRNA TCTP or control and 100 nM of ASO TCTP or scrambled control for 48 h. Cells were then treated with 50 nM of docetaxel. After 24 h, the cells were analyzed for relative DNA content on a dual laser flow cytometer (FACSCalibur, Becton Dickinson Biosciences, Le Pont de Claix, France). Each assay was performed in triplicate.
Flow cytometry was used to quantify the percentage of cells in each cell cycle phase three days after the siRNA treatment. After the treatment of PC-3 cells with 5 nM TCTP siRNA for 1 day, the fraction of cells undergoing apoptosis (sub-G1/G0 fraction) was 25% higher after treatment with 5 nM TCTP siRNA compared with scrambled control siRNA (**, P≤0.01; FIG. 6, upper panel). Using TCTP ASO treatment alone, we found an increase of 75% in sub-G0G1 fraction (***, P≤0.001; FIG. 6, middle and bottom panel), enhanced by the 50 nM docetaxel treatment (90% in sub-G0-G1 fraction, ***, P≤0.001). […] The fraction of PC-3 in S phase was 20 to 40% lower after TCTP siRNA or ASO treatments respectively compared to the scrambled controls (FIG. 6). […] The rate of apoptotic PC-3 cells after TCTP silencing with different ASO concentrations was explored with the Invitrogen countess (FIG. 6 and FIG. 7A). PC-3 cells were treated with 70, 100 or 200 nM of TCTP ASO or control. Cells were harvested 3 days after treatment and […] of trypan blue was added before analysis with Invitrogen Countess. […] Moreover, TCTP has been reported to interact with caspase-3, thereby inhibiting caspase-3 activation (Gnanasekar et al., 2009, Int J Oncol. 34:1241-6). In order to investigate the effect of TCTP silencing on caspase-3 cleavage and activity, PC-3 cells were treated daily with 100 nM TCTP or scrambled ASO for 2 days. Cells were harvested 2 days after and proteins were extracted for western blotting with a caspase-3 antibody that recognizes both full-length and cleaved caspase-3.
PC3 cells were transfected with a TCTP siRNA of SEQ ID NO: 3. Cell proliferation and apoptosis were studied using respectively MTT (3-(4,5-dimethylthiazol-2-yl)-2,5-diphenyl tetrazolium bromure) assay and flow cytometry.
PC3 cells were transfected with a TCTP ASO of SEQ ID NO: 2. Cell proliferation and apoptosis were studied using respectively MTT assay and flow cytometry.

| Compound | fraction of cells in S phase | fraction of cells undergoing apoptosis |
| --- | --- | --- |
| CC(=O)O[C@@]12CO[C@@H]1C[C@H](O)[C@@]1(C)C(=O)[C@H](O)C3=C(C)[C@@H](OC(=O)[C@H](O)[C@@H](NC(=O)OC(C)(C)C)c4ccccc4)C[C@@](O)([C@@H](OC(=O)c4ccccc4)[C@H]21)C3(C)C [docetaxel, reference compound] | without changing the fraction of cells in S phase | increased the fraction of cells undergoing apoptosis |

System: PC-3 tumors
Experiment: PC-3 tumor growth in vivo in athymic nude mice
Conditions: PC3 xenografted nude mice, 10th week of treatment
Experimental: Approximately 3.10^6 PC-3 cells and 10.10^6 LNCaP cells were inoculated subcutaneously with 0.1 mL of Dulbecco's Modified Eagle's Medium (Invitrogen) supplemented with 10% FCS for PC-3 or with 0.1 mL of Matrigel (BD Biosciences Discovery Labware) for LNCaP in the flank region of 4-week-old male athymic nude mice (Charles River, L'Arbresle, France) via a 23-gauge needle. When PC-3 tumors reached 50 mm^3, usually 3 to 4 weeks after injection, mice were randomly selected for treatment with TCTP ASO alone, scrambled ASO alone, TCTP ASO plus docetaxel or scrambled ASO plus docetaxel. Mice bearing LNCaP tumors between 200 and 300 mm^3 in volume were castrated via scrotal approach and randomly assigned to a treatment arm. Mice were treated beginning 1 week after castration with TCTP ASO or control ASO alone and serum PSA measurements were done weekly. For both experiments, each experimental group consisted in 10 mice and the tumor volume measurements were performed once weekly and calculated by the formula length×width×depth×0.5236 (Gleave et al., 1999, Clin Cancer Res 5:2891-8). After randomization, 10 mg/kg TCTP or scrambled ASO was injected intraperitoneally (i.p) once daily for 60 days for ASO monotherapy groups and 90 days for the ASO plus docetaxel groups. A total of 35 mg/kg docetaxel was administrated i.p. three times per week from days 7 to 14. Tumor volume measurements were performed once weekly and calculated by the formula length×width×depth×0.5236 (20). Data points were expressed as average tumor volume levels +/−standard error (SE). All animal procedures were performed in accordance with protocols approved by French laws and the European directives and with appropriate institutional certification.
We next evaluated the effects of TCTP ASO treatment on the growth of PC-3 tumors in vivo (FIG. 8). Male nude mice bearing PC-3 tumors (50 mm^3) were randomly selected for TCTP ASO versus scrambled ASO and 10 mg/kg ASO were administrated once daily by i.p. injection for […]. From days 7 to 14, 30 mg/kg of docetaxel was administrated i.p. 3 days in the week. Mean tumor volume was similar in all groups before therapy.
TCTP inhibition was evaluated in nude mice xenografted with the PC3 CRPC cell line. The animals were treated in an everyday basis and for a period of two months by peritoneal injection of ASO or control TCTP once their tumor volume was 200-300 mm^3. In order to evaluate the additive anticancer activity of ASO TCTP, mice were treated with docetaxel (33 mg/kg) by peritoneal injection three times per week for one week prior to ASO or control TCTP injections. For all experiments, the average tumor volume was measured once a week.

| Compound | tumor volume |
| --- | --- |
| 5′-CGTGTAGGTACGGCAGATC-3′ (listed as DNA, chemistry not given here) [ASO scrambled, reference compound] | over 1500 mm^3 |

System: TCTP
Experiment: ASO sequences screening: TCTP expression by western blot and/or qRT-PCR
Format: cell-based, human
Conditions: WB and/or qRT-PCR, PC-3 cells overexpressing TCTP
Experimental: Western Blot analysis was performed as described previously (Rocchi et al., 2004, Cancer Res. 64:6595-602) with 1:5000 rabbit anti-Hsp27 polyclonal antibody (Assay Designs, Villeurbanne, France), 1:2000 rabbit TCTP polyclonal antibody (Abcam Inc., Cambridge, UK), 1:250 rabbit anti-MSL1v1 polyclonal antibody (Abcam Inc.), 1:500 mouse anti-ubiquitin monoclonal antibody (Santa Cruz Biotechnology Inc., Heidelberg, Germany) or 1:1000 rabbit anti-caspase-3 polyclonal antibody (Cell Signalling Technology Inc., Danvers, USA). Loading levels were normalized using 1:5000 rabbit anti-glyceraldehyde-3-phosphate dehydrogenase polyclonal (Abcam Inc.) or 1:2500 mouse anti-vinculine monoclonal antibodies (Sigma Chemical Co., St Louis, Mo., USA).
The quantitative reverse transcription polymerase chain reaction (qRT-PCR) analysis was done on a LightCycler detection system (Roche Applied Science, Meylan, France). Expression levels of 18S subunit of the ribosome gene were used as an internal control. First strand cDNA was synthesized from 1 μg of total RNA using random hexamers and expanded by reverse transcriptase according to the manufacturer's instructions (ImProm-II Reverse Transcription System, Promega, Charbonniéres-les-Bains, France), subsequently diluted 1:10 with water, and stored at −20° C. until use. TCTP and 18S polymerase chain reaction (PCR) products were detected by quantitative real time PCR (qRT-PCR) using the SYBR Premix Ex Taq (Takara Bio Inc, St Germain en Laye, France) following the manufacturer's instructions. Five microliters of diluted cDNA template were mixed with 10 μl SYBR Premix Ex Taq (including Taq polymerase, reaction buffer, MgCl2, SYBR green I dye, and deoxynucleotide triphosphate mix) and 0.4 μM forward and reverse primers, in a final volume of 20 μl. The following primers were used: TCTP forward 5′-[…]-3′ (SEQ ID NO: 8) and TCTP reverse 5′-[…]-3′; (SEQ ID NO: 9); 18S forward 5′-[…]-3′ (SEQ ID NO: 10) and 18S reverse 5′-[…]-3′ (SEQ ID NO: 11). After an initial Taq activation for 10 seconds at 95° C., Light Cycler PCR was done using 55 cycles with the following cycling conditions: 95° C. for 5 seconds, 58° C. for 7 seconds, and 72° C. for 14 seconds. Each sample was analyzed in duplicate and the experiment was repeated three times. Results were analyzed using RealQuant data analysis software (Roche, Neuilly-sur-seine, France). The results analysis was done with the 2(-Delta Delta C(T)) Method (Livak K J. et al., 2001; Methods. 25:402-8).
In order to find a sequence ASO having an inhibiting effect on TCTP expression, 30 ASO sequences have been designed 26 of which are shown in table 1. Said 30 sequences cover the TCTP mRNA (accession number NM_003295). Using BLAST program, the specificity of said sequences has been studied. Among said 30 sequences, only 15 sequences have been identified as being specific for TCPT mRNA sequence (see table 1). The effect of said ASO sequences on TCTP expression was tested by western blot analysis (WB) and/or by quantitative reverse transcription polymerase chain reaction (qRT-PCR) on PC-3 cells overexpressing TCTP. WB and qRT-PCR were performed as exposed in example 1.

| Compound | ability to inhibit TCTP expression |
| --- | --- |
| ACCAGTGATTACTGTGCTTT (listed as DNA, chemistry not fully specified) [ASO13] | strong ability to inhibit TCTP expression |
| AGAAAATCATATATGGGGTC (listed as DNA, chemistry not fully specified) [ASO24] | strong ability to inhibit TCTP expression |
| ATGTAATCTTTGATGTACTT (listed as DNA, chemistry not fully specified) [ASO17] | strong ability to inhibit TCTP expression |
| CTTGTAGGCTTCTTTTGTGA (listed as DNA, chemistry not fully specified) [ASO16] | strong ability to inhibit TCTP expression |
| GAAATTAGCAAGGATGTGCT (listed as DNA, chemistry not fully specified) [ASO30] | strong ability to inhibit TCTP expression |
| GTCATAAAAGGTTTTACTCT (listed as DNA, chemistry not fully specified) [ASO28] | strong ability to inhibit TCTP expression |
| GTTTCCCTTTGATTGATTTC (listed as DNA, chemistry not fully specified) [ASO18] | strong ability to inhibit TCTP expression |
| TAATCATGATGGCGACTGAA (listed as DNA, chemistry not fully specified) [ASO4] | strong ability to inhibit TCTP expression |
| TTAACATTTCTCCATTTCTA (listed as DNA, chemistry not fully specified) [ASO26] | strong ability to inhibit TCTP expression |
| TTCTGGTCTCTGTTCTTCAA (listed as DNA, chemistry not fully specified) [ASO19] | strong ability to inhibit TCTP expression |
